This assay addresses recombinant eIF4E (Homo sapiens (Human), UniProt P06730). The assay is described as follows: Fluorescence polarization competition assay for eIF4E binding potency. As to the method:
Compounds were screened for eIF4E binding potency using a fluorescence polarization competition assay. All binding reactions were performed in fluorescence polarization buffer (FPB) containing 20 mM Tris pH 7.5, 100 mM NaCl, 1 mM DTT, and 0.02% Tween-20. Final binding reactions contained 75 nM recombinant eIF4E (Beryllium, custom order), 20 nM EDA-m^7GDP-ATTO-550 (Jena Bioscience, NU-827-550) and varying concentrations of the inhibitory compound of interest. Final DMSO concentration in each reaction was 1%.
eIF4E protein was pre-incubated with EDA-m^7GDP-ATTO-550 in FPB at 2× concentrations for 5 minutes prior to the addition of compounds. Compounds (100×) were prepared using 3-fold serial dilutions in 100% DMSO, and subsequently diluted 1:50 in FPB to produce 2× stocks. 50 μl of 2× eIF4E/EDA-m^7GDP-ATTO-550 were transferred to the wells of a 96-well half-area black flat bottom polystyrene plate. 50 μl of 2× test compound were added, and binding reactions were allowed to equilibrate for 30 minutes at room temperature while protected from light. The fluorescent polarization signal was detected using a Victor 2 multi-label counter (Perkin Elmer) and the concentration necessary to achieve inhibition of eIF4E/EDA-m^7GDP-ATTO-550 binding by 50% (IC50) was calculated using data from an 8-point compound dilution series.
In Table 4A, IC50 values of less than 0.05 μM are labelled as “+++”, from 1 to 0.05 μM are labelled as “++”, and greater than 1 μM are labelled as “+”. ND=not determined.
On the technique in general: Fluorescence polarisation rises when a labelled molecule tumbles more slowly, as on binding a larger partner.

Where [1] appears, read: fluorescence polarization competition, 75 nM recombinant eIF4E, 20 nM EDA-m7GDP-ATTO-550, IC50 class, read-out: elF4E FP.
Setting [2] is: inhibition of eIF4E/EDA-m7GDP-ATTO-550 binding by 50%, Table 4B calculated values, read-out: IC50.
[3] abbreviates: inhibition of eIF4E/EDA-m7GDP-ATTO-550 binding, calculated IC50 values, Table 4B, read-out: IC50.

We go through 36 compounds from patent publication US11286268B1, “EIF4E-inhibiting compounds and methods” (EFFECTOR THERAPEUTICS, INC., priority 2019, dated 2022).

Read-outs that look alike come from different tables or passages of the source. Where only a bound is given, the exact number is not on record here.

Sequence of recombinant eIF4E (P06730 whole entry): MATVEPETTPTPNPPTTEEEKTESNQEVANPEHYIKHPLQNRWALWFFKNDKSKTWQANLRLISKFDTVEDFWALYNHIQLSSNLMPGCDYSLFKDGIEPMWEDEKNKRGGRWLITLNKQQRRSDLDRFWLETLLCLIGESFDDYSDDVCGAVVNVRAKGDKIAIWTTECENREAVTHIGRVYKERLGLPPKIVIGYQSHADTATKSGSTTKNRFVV

`CONC(=O)c1csc2c(-c3cc(Cl)ccc3OCCn3c(C)nc4c(F)cc(C(F)F)c(C#N)c4c3=O)ccnc12` [compound 303]: the IC50 under setting [1] lay within 50 to 1000 nM.

As for `Cc1nc2cnc(C3CCC(F)(F)CC3)c(C#N)c2c(=O)n1CCOc1ccc(Cl)cc1-c1ccnc2c(C(=O)O)csc12` [compound 260], the IC50 reads like this: under setting [1], below 50 nM; under setting [2], 20.4 nM. In the same order, the values of `Cc1cc(-c2cc(Cl)ccc2OCCn2c(C)nc3cc(C(F)(F)F)c(N4CCN(CCF)CC4)c(C#N)c3c2=O)c2scc(C(=O)O)c2n1` [compound 430] are below 50 nM and 9 nM. In the same order, the values of `Cc1cc(-c2cc(Cl)ccc2OCCn2c(C)nc3cc(C(F)(F)F)c(-c4cncc(C)c4C)c(C#N)c3c2=O)c2scc(C(=O)O)c2n1` [compound 903] are below 50 nM and 11.2 nM. Taken in the same sequence, the figures for `N#Cc1cc2c(=O)n(CCOc3ccc(Cl)cc3-c3cc(CCO)cc(C(=O)O)c3)cnc2cn1` [compound 106] were above 1000 nM and 1380 nM. `Cc1nc2cnc(C3CCCN(CC(F)F)C3)c(C#N)c2c(=O)n1CC#Cc1ccc(Cl)cc1-c1ccnc2c(C(=O)O)csc12` (stereo not shown) [compound 1574]: the IC50 under setting [3] is 13.4 nM. For the compound `CCc1cc(-c2cc(Cl)ccc2OCCn2c(C)nc3cc(C(F)(F)F)c(CC4CN(C)C4)c(C#N)c3c2=O)c2scc(C(=O)O)c2n1` [compound 1394], under setting [3], the IC50 was 4.74 nM. Take `Cc1nc2cnc(N(C)[C@H]3[C@@H]4CC[C@H]3CN(CC(C)(F)F)C4)c(C#N)c2c(=O)n1CC#Cc1ccc(Cl)cc1-c1ccnc2c(C(=O)O)csc12` [compound 1690]: the IC50 under setting [3] is 27.4 nM. In the case of `Cc1cc(-c2cc(Cl)ccc2OCCn2c(C)nc3cc4c(c(C#N)c3c2=O)CCN(C)C4)c2scc(C(=O)O)c2n1` [compound 335], the IC50 under setting [1] was in the range of 50 to 1000 nM. Consider `Cc1cc(-c2cc(Cl)ccc2OCCn2c(C)nc3nc(C(F)(F)F)c(N4CCN(C)CC4)cc3c2=O)c2scc(C(=O)O)c2n1` [compound 849], for which the IC50 by setting is: under setting [1], below 50 nM; under setting [2], 14.5 nM. On to `Cc1nc2cc(OC(F)F)c(C#N)c(C#N)c2c(=O)n1CCOc1ccc(Cl)cc1-c1ccnc2c(C(=O)O)csc12` [compound 538], for which the IC50 runs as follows: under setting [1], below 50 nM; under setting [2], 22.3 nM. Regarding `CON(C)c1ncc2nc(C)n(CCOc3ccc(Cl)cc3-c3cc(C)nc4c(C(=O)O)csc34)c(=O)c2c1C#N` [compound 976], the IC50 runs as follows: under setting [1], below 50 nM; under setting [2], 19 nM. Taken in the same sequence, the figures for `CCc1cc(-c2cc(Cl)ccc2OCCn2c(C)nc3cc(C(F)(F)F)c(-c4cc(F)cnc4C)c(C#N)c3c2=O)c2scc(C(=O)O)c2n1` [compound 1017] were below 50 nM and 8.26 nM. For the compound `N#Cc1cc2c(=O)n(CCOc3ccc(Cl)cc3-c3cnc(C(F)F)c(C(=O)O)c3)cnc2cn1` [compound 109], the IC50 runs as follows: under setting [1], above 1000 nM; under setting [2], 19200 nM. As for `COCc1ncc2nc(C)n(CCOc3ccc(Cl)cc3-c3cc(C)nc4c(C(=O)O)csc34)c(=O)c2c1C#N` [compound 1066], the IC50 is, setting by setting: under setting [1], 50 to 1000 nM; under setting [2], 57.4 nM. Taken in the same sequence, the figures for `Cc1sc2c(-c3cc(Cl)ccc3OCCn3c(C)nc4cc(C(F)(F)F)c(Cl)c(C#N)c4c3=O)ccnc2c1C(=O)O` [compound 555] were below 50 nM and 10.8 nM.

As for `Cc1nc2c(C(F)(F)F)cc(N3CCN(C)CC3)nc2c(=O)n1CC#Cc1ccc(Cl)cc1-c1ccnc2c(C(=O)O)csc12` [compound 1981], under setting [3], the IC50 is 23.8 nM. On to `COC(=O)c1sc2cc(-c3cc(Cl)ccc3OCCn3c(C)nc4cc(C(F)(F)F)cc(C#N)c4c3=O)cnc2c1O` [compound 664], for which the IC50 by setting is: under setting [1], 50 to 1000 nM; under setting [2], 153 nM. As to `Cc1cc(-c2cc(Cl)ccc2OCCn2c(C)nc3cc(C(F)(F)F)c(N4CCN(C)CC4)c(C#N)c3c2=O)cc(C)n1` [compound 835], the IC50 under setting [1] was below 50 nM and the IC50 under setting [2] was 29.3 nM. Consider `Cc1nc2cnc(N(C)C3CCN(CC(F)F)CC3)c(C#N)c2c(=O)n1CCOc1ccc(Cl)cc1-c1ccnc2c(P(=O)(O)O)csc12` [compound 1617], for which, under setting [3], the IC50 is 15.6 nM. As for `N#Cc1cccc2nc(C(F)F)n(CCOc3ccc(Cl)cc3-c3ccnc4c(C(=O)O)csc34)c(=O)c12` [compound 143], the IC50 is below 50 nM under setting [1] and 16.7 nM under setting [2]. Consider `Cc1cc(-c2cc(Cl)ccc2OCCn2c(C)nc3cc(C(F)(F)F)c(-c4ccc(Cl)nc4)c(C#N)c3c2=O)c2scc(C(=O)O)c2n1` [compound 1059], for which the IC50 by setting is: under setting [1], below 50 nM; under setting [2], 11.1 nM. Regarding `COc1c(CN(C)C)cc2nc(C)n(CCOc3ccc(Cl)cc3-c3cc(C)nc4c(C(=O)O)csc34)c(=O)c2c1C#N` [compound 369], the IC50 is, setting by setting: under setting [1], below 50 nM; under setting [2], 1.32 nM. As to `Cc1nc2cc(C(F)(F)F)cc(Br)c2c(=O)n1CCOc1ccc(Cl)cc1-c1cccc(C(=O)O)c1` [compound 304], the IC50 is, setting by setting: under setting [1], above 1000 nM; under setting [2], 1600 nM. Turning to `Cc1nc2cnc(N3CC4(C3)CN(C3CC3(C)C)C4)c(C#N)c2c(=O)n1CCOc1ccc(Cl)cc1-c1ccnc2c(C(=O)O)csc12` (stereo not shown) [compound 1436], the IC50 under setting [3] was 29.5 nM. As for `Cc1nc2cnc(N(C)C3CCN(CC4(C(F)(F)F)CC4)CC3)c(C#N)c2c(=O)n1CC#Cc1ccc(Cl)cc1-c1ccnc2c(C(=O)O)csc12` [compound 1587], the IC50 under setting [3] was 39.7 nM. With `Cc1nc2cnc(N3CCN(CC(F)F)CC3)c(C#N)c2c(=O)n1CC#Cc1ccc(Cl)cc1-c1ccnc2c(C(=O)O)csc12` [compound 1356], the IC50 under setting [3] was 23.2 nM.

As for `CCS(=O)(=O)NC(=O)c1csc2c(-c3cc(Cl)ccc3C#CCn3c(C)nc4cnc(N(C)C5CCN(C6CC(F)(F)C6)CC5)c(C#N)c4c3=O)ccnc12` [compound 1807], under setting [3], the IC50 is 10.4 nM. Same read-out and setting: to `Cc1nc2cnc(N3CC4(C3)CN(C3COC3)C4)c(C#N)c2c(=O)n1CC#Cc1ccc(Cl)cc1-c1ccnc2c(C(=O)O)csc12` [compound 1322] belongs 11.2 nM; to `Cc1nc2cnc(N3CCC[C@@H]4CN(CC(F)F)CC[C@@H]43)c(C#N)c2c(=O)n1CC#Cc1ccc(Cl)cc1-c1ccnc2c(C(=O)O)csc12` [compound 1544], 13.1 nM. Take `N#Cc1cc(C(F)(F)F)cc2nc(C#N)n(CCOc3ccc(Cl)cc3-c3cccc(C(=O)O)c3)c(=O)c12` [compound 185]: the IC50 reads like this: under setting [1], 50 to 1000 nM; under setting [2], 94.9 nM.

With `Cc1cc(-c2cc(Cl)ccc2OCCn2c(C)nc3cnc(N4CCC(=O)C4)c(C#N)c3c2=O)c2scc(C(=O)O)c2n1` [compound 884], the IC50 reads like this: under setting [1], below 50 nM; under setting [2], 5.85 nM. Consider `CCN(c1ncc2nc(C)n(CC#Cc3ccc(Cl)cc3-c3ccnc4c(C(=O)NS(=O)(=O)CCC#N)csc34)c(=O)c2c1C#N)C1CCN(C2COC2)CC1` [compound 1736], for which the IC50 under setting [3] is 12.6 nM.

Consider `Cc1nc2cc(C(F)F)c(OC(F)(F)F)c(C#N)c2c(=O)n1CCOc1ccc(Cl)cc1-c1ccnc2c(C(=O)O)csc12` [compound 551], for which the IC50 was below 50 nM under setting [1] and 29.2 nM under setting [2]. Taken in the same sequence, the figures for `Cc1nc2c(F)c(CN(C)C)c(C(F)F)c(C#N)c2c(=O)n1CCOc1ccc(Cl)cc1-c1ccnc2c(C(=O)O)csc12` [compound 518] were below 50 nM and 16.4 nM. `Cc1cc(-c2cc(Cl)ccc2OCCn2c(C)nc3cc(C(F)(F)F)c(N4CCNCC4)c(C#N)c3c2=O)c2sc(C)c(C(=O)O)c2n1` [compound 879]: the IC50 is, setting by setting: under setting [1], below 50 nM; under setting [2], 7.31 nM.
